# Columns and labels:
# Assay type in all cases: biochemical
# PDGFRβ = PDGFRβ (Homo sapiens, UniProt P09619); assay: Kinase inhibition activity test, isotope labeling: PDGFRβ; details: ATP 200 μM; read-out: PDGFRβ IC50 value (inhibitory activity value)
# Experimental: (§1) The purpose of this experiment was to test the inhibitory activity of the compound of the invention for in vitro kinase with the isotope labeling method (the γ phosphate group on ATP was labeled). In this experiment, the in vitro activity inhibition of such kinases as FLT3, VEGFR2, FLT1, FLT4, RET, c-RAF, B-RAF, c-KIT, PDGFα, PDGFβ, FGFR2, FGFR1, EphA2, EphB2, SRC, ABL, ALK and Met was tested respectively. Staurosporine was reference molecule (or referred to as positive control). The kinase inhibition activity of the test compound was expressed by half-inhibitory concentration (IC50) or the kinase activity inhibition rate of the test compound at a concentration of 10 μM. The IC50 value could be obtained by calculating the kinase activity inhibition rate of the test compound at different concentrations.
# (§2) 20 mM 3-(N-morpholinyl)propanesulfonic acid (MOPS); 1 mM ethylenediaminetetraacetic acid (EDTA), 0.01% Brij 35 (Brij-35), 5% glycerol, 0.1% mercaptoethanol, 1 mg/mL bovine serum albumin (BSA), 10 mM manganous dichloride solution (MnCl2), 0.1 mg/mL glutamic acid/tyrosine (4:1) polypeptide (poly(Glu, Tyr)4:1), 50 μM EAIYAAPFAKKK (substrate of FLT3), 0.33 mg/mL myelin basic protein (substrate of VEGFR2), 250 μM KKKSPGEYVNIEFG (substrate of FLT1(h)), 500 μM GGEEEEYFELVKKKK (substrate of FLT4(h)), 250 μM KKKSPGEYVNIEFG (substrate of RET), 0.66 mg/mL myelin basic protein (substrate of C-RAF), 250 μM GGMEDIYFEFMGGKKK (substrate of c-Kit), 250 μM GGMEDIYFEFMGGKKK (substrate of PDGFα), 250 μM KKKSPGEYVNIEFG (substrate of FGFR1), […] GGEEEEYFELVKKKK (substrate of SRC), 50 μM EAIYAAPFAKKK (substrate of ABL), 250 μM KKKSPGEYVNIEFG (substrate of ALK), 250 μM KKKSPGEYVNIEFG (substrate of Met(h)), 10 mM magnesium acetate and γ-^33 P-ATP solution, stop buffer (3% phosphate buffer), washing buffer (75 mM phosphate solution), methanol, Filtermat A membrane, FLT3, VEGFR2, FLT3, VEGFR2, FLT1, FLT4, RET, c-RAF, B-RAF, c-KIT, PDGFRα, PDGFRβ, FGFR2, FGFR1, EphA2, EphB2, SRC, ABL, ALK, Met and other kinases, and the test compounds.
# (§3) Buffers (8 mM MOPS with pH value of 7.0, 0.2 mM EDTA and 10 mM MnCl2), (5-10 mU) kinases to be tested (FLT3, VEGFR2, FLT1, FLT4, RET, c-RAF, B-RAF, c-KIT, PDGFRα, PDGFRβ, FGFR2, FGFR1, EphA2, EphB2, SRC, ABL, ALK and Met), substrates of kinases to be tested (refer to experimental materials), 10 mM magnesium acetate and γ-^33 P-ATP solution, and test compounds at different concentrations were added to a reaction tube orderly. […] Reaction was terminated with 5 μL 3% phosphate buffer finally, and 10 μL reaction solution was titrated to the Filtermat A membrane; solution was washed for 3 times with 75 mM phosphate solution with each time lasting 5 minutes, and then washed once with methanol. […]
# FLT1 = FLT1 (Homo sapiens, UniProt P17948); assay: Kinase inhibition activity test, isotope labeling: FLT1; details: ATP 200 μM; read-out: FLT1 IC50 value (inhibitory activity value)
# Sequence of FLT1 (P17948 27-1338): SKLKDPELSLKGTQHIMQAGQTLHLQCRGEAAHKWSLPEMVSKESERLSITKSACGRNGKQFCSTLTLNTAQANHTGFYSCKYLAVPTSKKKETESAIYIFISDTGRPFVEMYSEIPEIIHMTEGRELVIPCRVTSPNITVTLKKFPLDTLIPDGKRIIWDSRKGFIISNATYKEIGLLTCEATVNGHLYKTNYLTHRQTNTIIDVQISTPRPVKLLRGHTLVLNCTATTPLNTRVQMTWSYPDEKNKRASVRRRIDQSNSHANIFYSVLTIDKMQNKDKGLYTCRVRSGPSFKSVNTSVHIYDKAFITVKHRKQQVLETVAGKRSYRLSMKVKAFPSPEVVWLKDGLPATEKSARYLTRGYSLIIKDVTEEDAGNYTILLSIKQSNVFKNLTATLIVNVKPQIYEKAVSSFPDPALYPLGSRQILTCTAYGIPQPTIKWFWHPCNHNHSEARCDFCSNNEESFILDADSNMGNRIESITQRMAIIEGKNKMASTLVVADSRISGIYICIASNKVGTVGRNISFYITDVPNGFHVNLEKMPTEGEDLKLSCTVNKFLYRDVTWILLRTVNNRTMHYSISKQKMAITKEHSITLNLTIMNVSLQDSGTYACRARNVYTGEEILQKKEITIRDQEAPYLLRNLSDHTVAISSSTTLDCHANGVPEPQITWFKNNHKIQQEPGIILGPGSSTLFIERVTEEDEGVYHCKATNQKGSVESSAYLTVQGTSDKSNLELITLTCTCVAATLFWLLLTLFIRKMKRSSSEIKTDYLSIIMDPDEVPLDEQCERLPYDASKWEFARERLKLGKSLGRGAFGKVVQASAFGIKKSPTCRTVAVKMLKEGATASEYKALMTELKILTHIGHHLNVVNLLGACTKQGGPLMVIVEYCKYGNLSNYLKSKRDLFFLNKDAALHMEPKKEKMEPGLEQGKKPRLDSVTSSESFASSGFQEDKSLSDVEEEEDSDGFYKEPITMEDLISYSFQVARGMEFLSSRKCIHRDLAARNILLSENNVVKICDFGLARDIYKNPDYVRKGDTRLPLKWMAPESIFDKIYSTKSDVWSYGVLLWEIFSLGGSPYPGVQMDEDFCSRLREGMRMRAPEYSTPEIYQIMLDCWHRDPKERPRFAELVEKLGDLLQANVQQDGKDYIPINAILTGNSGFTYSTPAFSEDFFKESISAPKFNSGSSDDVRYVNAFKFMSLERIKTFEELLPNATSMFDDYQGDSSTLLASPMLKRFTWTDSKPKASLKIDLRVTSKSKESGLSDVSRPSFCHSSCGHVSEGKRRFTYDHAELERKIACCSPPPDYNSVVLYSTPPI
# Experimental: as §1, §2, §3
# FLT4 = FLT4 (Homo sapiens, UniProt P35916); assay: Kinase inhibition activity test, isotope labeling: FLT4; details: ATP 200 μM; read-out: FLT4 IC50 value (inhibitory activity value)
# Sequence of FLT4 (P35916 25-1363): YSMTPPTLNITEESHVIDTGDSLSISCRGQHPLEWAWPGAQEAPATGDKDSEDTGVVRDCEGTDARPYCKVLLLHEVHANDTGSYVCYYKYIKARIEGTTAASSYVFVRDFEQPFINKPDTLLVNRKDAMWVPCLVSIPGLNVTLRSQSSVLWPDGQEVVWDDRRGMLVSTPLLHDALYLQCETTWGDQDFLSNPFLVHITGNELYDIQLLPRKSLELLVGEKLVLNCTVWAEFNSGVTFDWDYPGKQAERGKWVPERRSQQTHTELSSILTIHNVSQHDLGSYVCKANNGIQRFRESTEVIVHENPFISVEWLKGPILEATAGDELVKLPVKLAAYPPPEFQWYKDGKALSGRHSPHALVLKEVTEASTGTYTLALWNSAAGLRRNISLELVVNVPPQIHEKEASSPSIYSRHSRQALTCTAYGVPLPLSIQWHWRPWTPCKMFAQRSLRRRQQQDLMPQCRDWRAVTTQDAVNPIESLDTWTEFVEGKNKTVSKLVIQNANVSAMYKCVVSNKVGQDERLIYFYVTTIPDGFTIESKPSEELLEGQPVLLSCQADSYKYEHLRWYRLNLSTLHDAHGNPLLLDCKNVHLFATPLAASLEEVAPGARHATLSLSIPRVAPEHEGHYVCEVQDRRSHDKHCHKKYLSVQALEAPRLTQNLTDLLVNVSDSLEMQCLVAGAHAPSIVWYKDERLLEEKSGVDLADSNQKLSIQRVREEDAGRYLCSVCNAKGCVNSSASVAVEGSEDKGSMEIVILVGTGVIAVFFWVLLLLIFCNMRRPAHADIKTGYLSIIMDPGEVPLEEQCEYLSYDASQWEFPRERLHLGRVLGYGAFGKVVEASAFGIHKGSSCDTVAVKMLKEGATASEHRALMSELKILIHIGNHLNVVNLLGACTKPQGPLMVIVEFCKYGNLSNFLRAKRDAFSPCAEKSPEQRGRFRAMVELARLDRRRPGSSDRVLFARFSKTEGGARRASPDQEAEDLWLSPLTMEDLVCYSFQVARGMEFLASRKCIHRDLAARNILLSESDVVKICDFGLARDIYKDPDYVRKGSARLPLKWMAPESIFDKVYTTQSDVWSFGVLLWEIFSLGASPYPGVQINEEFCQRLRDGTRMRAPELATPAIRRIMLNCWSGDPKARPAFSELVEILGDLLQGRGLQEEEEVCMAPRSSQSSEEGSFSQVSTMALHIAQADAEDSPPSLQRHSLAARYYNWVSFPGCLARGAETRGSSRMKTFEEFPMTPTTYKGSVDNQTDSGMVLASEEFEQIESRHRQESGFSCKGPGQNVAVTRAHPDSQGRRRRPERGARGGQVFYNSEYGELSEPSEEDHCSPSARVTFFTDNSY
# Experimental: as §1, §2, §3
# RET = RET (Homo sapiens, UniProt P07949); assay: Kinase inhibition activity test, isotope labeling: RET; details: ATP 70 μM; read-out: RET IC50 value (inhibitory activity value)
# Experimental: as §1, §2, §3
# FGFR1 = FGFR1 (Homo sapiens, UniProt P11362); assay: Kinase inhibition activity test, isotope labeling: FGFR1; details: ATP 200 μM; read-out: FGFR1 IC50 value (inhibitory activity value)
# Sequence of FGFR1 (P11362 22-822): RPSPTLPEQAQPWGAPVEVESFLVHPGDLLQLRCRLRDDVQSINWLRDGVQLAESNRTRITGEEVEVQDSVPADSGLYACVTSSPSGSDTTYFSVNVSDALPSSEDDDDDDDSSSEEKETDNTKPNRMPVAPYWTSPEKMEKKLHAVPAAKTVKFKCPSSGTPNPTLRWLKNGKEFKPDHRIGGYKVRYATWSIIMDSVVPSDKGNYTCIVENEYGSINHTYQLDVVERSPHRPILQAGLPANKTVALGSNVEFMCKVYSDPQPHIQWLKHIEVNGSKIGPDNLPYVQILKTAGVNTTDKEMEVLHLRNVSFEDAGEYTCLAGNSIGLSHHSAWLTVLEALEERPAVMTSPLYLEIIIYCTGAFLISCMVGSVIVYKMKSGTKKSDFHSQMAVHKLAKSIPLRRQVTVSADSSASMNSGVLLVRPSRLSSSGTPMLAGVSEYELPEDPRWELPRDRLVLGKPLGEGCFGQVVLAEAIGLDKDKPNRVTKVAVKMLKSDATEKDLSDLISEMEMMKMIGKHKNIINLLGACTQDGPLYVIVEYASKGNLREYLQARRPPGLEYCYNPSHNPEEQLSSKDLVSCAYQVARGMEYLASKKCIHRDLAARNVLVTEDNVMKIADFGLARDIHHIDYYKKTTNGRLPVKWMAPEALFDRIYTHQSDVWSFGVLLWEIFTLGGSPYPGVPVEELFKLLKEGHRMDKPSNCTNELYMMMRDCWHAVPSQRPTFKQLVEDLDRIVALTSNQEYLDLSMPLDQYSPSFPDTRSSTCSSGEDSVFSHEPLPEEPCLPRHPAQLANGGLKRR
# Experimental: as §1, §2, §3
# EphB2 = target: T1, EphB2 (Homo sapiens, UniProt P29323); assay: Kinase inhibition activity test, isotope labeling: EphB2; details: ATP 10 μM; read-out: EphB2 IC50 value (inhibitory activity value)
# T1 sequence (P29323 19-1055): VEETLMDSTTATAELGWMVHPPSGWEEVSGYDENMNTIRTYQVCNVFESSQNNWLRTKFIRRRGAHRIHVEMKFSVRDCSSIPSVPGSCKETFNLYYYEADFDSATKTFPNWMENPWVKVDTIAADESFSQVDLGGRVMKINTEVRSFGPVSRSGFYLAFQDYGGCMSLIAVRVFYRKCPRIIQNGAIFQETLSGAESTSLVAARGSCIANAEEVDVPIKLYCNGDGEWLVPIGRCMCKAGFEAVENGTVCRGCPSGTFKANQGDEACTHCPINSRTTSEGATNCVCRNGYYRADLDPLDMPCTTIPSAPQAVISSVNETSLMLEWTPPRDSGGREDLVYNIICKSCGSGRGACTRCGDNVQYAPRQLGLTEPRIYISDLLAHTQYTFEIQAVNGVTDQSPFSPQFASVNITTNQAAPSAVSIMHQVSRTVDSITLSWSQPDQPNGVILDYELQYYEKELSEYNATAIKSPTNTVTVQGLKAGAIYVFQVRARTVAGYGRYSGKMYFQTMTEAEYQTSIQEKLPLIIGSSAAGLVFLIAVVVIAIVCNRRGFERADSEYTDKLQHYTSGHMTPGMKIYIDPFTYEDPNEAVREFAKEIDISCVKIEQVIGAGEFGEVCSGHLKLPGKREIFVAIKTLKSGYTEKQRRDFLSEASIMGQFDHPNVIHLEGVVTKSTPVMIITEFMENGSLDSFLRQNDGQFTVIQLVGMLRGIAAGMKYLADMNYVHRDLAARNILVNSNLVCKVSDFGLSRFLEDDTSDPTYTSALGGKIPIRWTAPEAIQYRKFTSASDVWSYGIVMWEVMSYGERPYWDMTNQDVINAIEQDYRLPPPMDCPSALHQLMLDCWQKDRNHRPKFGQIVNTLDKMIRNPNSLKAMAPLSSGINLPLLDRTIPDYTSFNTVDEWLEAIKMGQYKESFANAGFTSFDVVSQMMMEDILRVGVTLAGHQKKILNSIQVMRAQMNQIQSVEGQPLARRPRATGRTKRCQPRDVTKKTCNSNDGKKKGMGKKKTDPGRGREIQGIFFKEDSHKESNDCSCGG
# Experimental: as §1, §2, §3
# Sequence of PDGFRβ (P09619 33-1106): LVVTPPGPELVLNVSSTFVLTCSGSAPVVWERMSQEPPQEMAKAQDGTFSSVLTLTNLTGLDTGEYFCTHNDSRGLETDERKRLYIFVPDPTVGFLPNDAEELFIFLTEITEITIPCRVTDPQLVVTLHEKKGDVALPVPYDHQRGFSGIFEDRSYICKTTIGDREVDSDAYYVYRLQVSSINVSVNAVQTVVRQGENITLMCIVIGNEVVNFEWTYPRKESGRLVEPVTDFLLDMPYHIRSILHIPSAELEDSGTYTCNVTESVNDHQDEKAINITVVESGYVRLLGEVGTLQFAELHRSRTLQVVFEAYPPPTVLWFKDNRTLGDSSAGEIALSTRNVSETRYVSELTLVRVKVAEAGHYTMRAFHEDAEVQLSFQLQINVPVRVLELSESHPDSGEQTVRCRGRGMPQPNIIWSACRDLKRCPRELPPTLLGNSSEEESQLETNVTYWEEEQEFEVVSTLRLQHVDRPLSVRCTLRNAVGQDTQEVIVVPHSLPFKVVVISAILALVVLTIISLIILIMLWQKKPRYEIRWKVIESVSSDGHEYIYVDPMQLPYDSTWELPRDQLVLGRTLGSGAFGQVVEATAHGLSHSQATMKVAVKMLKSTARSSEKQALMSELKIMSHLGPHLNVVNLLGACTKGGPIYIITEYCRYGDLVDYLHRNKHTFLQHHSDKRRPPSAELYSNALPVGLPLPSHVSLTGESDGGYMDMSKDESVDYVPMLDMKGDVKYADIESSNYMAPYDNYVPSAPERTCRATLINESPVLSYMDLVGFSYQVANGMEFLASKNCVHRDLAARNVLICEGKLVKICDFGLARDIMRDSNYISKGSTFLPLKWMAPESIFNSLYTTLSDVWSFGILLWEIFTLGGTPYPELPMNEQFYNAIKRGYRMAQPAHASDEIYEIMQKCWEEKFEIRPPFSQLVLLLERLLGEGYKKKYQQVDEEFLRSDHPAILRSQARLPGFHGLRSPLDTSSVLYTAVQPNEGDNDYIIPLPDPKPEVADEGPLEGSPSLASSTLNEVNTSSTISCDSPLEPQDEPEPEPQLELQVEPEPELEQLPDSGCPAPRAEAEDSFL
IC50 (PDGFRβ) [µM],IC50 (FLT1) [µM],IC50 (FLT4) [µM],IC50 (RET) [µM],IC50 (FGFR1) [µM],IC50 (EphB2) [µM],Compound
< 10,< 10,< 10,< 10,< 10,< 10,CC(C)(C)c1cc(NC(=O)Nc2ccc(Oc3ncnc4[nH]ncc34)c(F)c2)no1 [4a-31]
0.408,< 10,< 10,< 10,< 10,< 10,O=C(Nc1ccc(Oc2ncnc3[nH]ncc23)cc1)Nc1ccc(Cl)c(C(F)(F)F)c1 [4a-2]
< 10,< 10,< 10,< 10,< 10,< 10,CC(C)(C)c1cc(NC(=O)Nc2ccc(Oc3ncnc4[nH]ncc34)cc2)on1 [4a-25]

Compound,IC50 (PDGFRβ) [µM],IC50 (FLT1) [µM],IC50 (FLT4) [µM],IC50 (RET) [µM],IC50 (FGFR1) [µM],IC50 (EphB2) [µM]
O=C(Nc1ccc(Oc2ncnc3[nH]ncc23)cc1)Nc1cccc(C(F)(F)F)c1 [4a-6],0.184,0.005,0.005,0.004,2.25,0.138
